Several values for one entry are separate records, joined by “and”; a condition that tells them apart may be missing. Equal entries are not always repeated.
Columns and labels:
[1] = oral dose equivalence; cited from earlier work
5HT2A = target: T1, 5HT2A (Mus musculus, UniProt P35363); test: [3H]MDL100907 binding in frontal cortical membranes (5HT2A Kd and Bmax)
T1 construct: homogenates were prepared from frontal cortices sampled from groups E and F; from tissue; host or cells: mouse frontal cortex membranes (homogenate)
Procedure: To prepare the homogenate, frontal cortices from each animal were homogenized individually in 40 volumes (w/v) of ice cold assay buffer using a tight-fitting glass/Teflon homogenizer and centrifuged at 39,500×g for 10 min. The supernatant was discarded, and the pellet re-suspended in 40 volumes (w/v) of assay buffer and the tissue washed by centrifugation two more times. The final pellet was re-suspended in ice-cold assay buffer to 6.25 mg weight wet of tissue/ml and used immediately in the binding assay. Aliquots of final membrane preparations were also stored at −80 C until required for protein determination. All centrifugations will be carried out at 4° C.
To examine binding, the frontal cortical membranes (400 μl; equivalent to 2.5 mg wet weight of tissue/tube) were incubated with 50 μl of [3H] MDL 100907 (8 concentrations: 0.025, 0.05, 0.1, 0.2, 0.4, 0.8, 1.6, 3.2 nM) and either 50 μl of buffer (total binding) or 50 μl of 10 μM ketanserin (to define nonspecific binding) for 60 min at 25 C. […]
Membrane bound radioactivity was recovered by filtration under vacuum through Skatron 11731 filters, presoaked in 0.5% polyethylenimine (PEI) using a Skatron cell harvester. Filters were rapidly washed with ice cold wash buffer (wash setting 9,9,0) and radioactivity determined by liquid scintillation counting (1 ml Packard MV Gold scintillator). […]

male C57BL/6J mice = test: Psilocybin head twitch response with chronic diazepam pre-treatment; assay type: in vivo
Procedure: Sixty-two (60 plus 2 spares;) male C57BL/6J mice (20-25 g upon arrival) were purchased from Charles River UK. Animals were group housed (in 3 s and a pair) in polypropylene cages. Mice were maintained on a normal phase 12 h light-dark cycle (lights on: 07:00-19:00 h) with free access to standard rodent maintenance diet (standard pelleted diet Envigo 2018) and filtered tap water. The holding room was maintained at a temperature of 21±4° C. and relative humidity was 55±15% with prolonged periods below 40% RH or above 70% RH avoided as detailed in the UK Code of Practice. As a refinement, each cage contained sawdust, sizzle nest, a red house, Perspex tunnel, plastic chew stick and a nestlet so that the mice can make nests and facilitate warmth. Mice were weighed upon arrival and provided with wet mash overnight. The following morning, mice were weighed, and the mash removed.
Mice were weighed and allocated into 6 treatment groups by a statistician (as per Table 20 below). […] For groups A-D animals were placed individually in clean cages with a light dusting of sawdust immediately following psilocybin administration (0.3 mg/kg, s.c) for head twitch response assessment. Head twitches were counted by a trained observer over a 30 minute period.
Statistical significance was tested using two-way analysis of variance with treatment and observer as cofactors (Table 21 below).

T1 sequence (P35363 whole entry): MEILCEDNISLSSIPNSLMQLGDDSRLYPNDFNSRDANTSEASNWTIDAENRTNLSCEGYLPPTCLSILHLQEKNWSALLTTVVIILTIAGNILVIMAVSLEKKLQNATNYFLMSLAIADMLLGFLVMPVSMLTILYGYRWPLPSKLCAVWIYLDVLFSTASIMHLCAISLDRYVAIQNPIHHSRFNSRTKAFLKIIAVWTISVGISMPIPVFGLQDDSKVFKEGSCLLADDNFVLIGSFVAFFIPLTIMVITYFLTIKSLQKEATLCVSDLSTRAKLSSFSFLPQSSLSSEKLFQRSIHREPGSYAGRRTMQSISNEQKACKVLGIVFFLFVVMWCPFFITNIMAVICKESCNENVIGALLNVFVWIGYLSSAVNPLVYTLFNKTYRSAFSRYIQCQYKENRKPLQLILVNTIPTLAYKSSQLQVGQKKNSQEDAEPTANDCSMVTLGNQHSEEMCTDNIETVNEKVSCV

| SMILES | Relative Potency [1] | other results |
| --- | --- | --- |
| Cc1nnc2n1-c1ccc(Cl)cc1C(c1ccccc1)=NC2 [Alprazolam, alprazolam] | 0.5 mg | – |
| O=C1CN=C(c2ccccc2Cl)c2cc([N+](=O)[O-])ccc2N1 [Clonazepam, clonazepam] | 0.25 to 0.5 mg | – |
| O=C(O)C1N=C(c2ccccc2)c2cc(Cl)ccc2NC1=O (stereo not drawn) [Clorazepate, clorazepate] | 7 mg | – |
| CN1C(=O)CN=C(c2ccccc2)c2cc(Cl)ccc21 [Diazepam, diazepam] | – | Bmax (fmoles/mg protein) (5HT2A): 271 fmoles/mg protein and 339 fmoles/mg protein and 334 fmoles/mg protein and 360 fmoles/mg protein and 314 fmoles/mg protein and 376 fmoles/mg protein; Bmax (pM) (5HT2A): 74.0 pM and 78.3 pM and 77.8 pM and 93.6 pM and 87.2 pM and 87.6 pM; psilocybin HTR, change with diazepam pretreatment (male C57BL/6J mice; 2 h post diazepam pretreatment): trend increase; HTR, change with diazepam pretreatment (male C57BL/6J mice; HTR at 10-15 and 20-25 minutes analyzed separately): significant increase; HTR, change with diazepam pretreatment (male C57BL/6J mice; over 30 minutes): trend increase |
| Clc1ccc2c(c1)C(c1ccccc1)=NCc1nncn1-2 [Estazolam, estazolam] | 0.5 to 1 mg | – |
| CCN(CC)CCN1C(=O)CN=C(c2ccccc2F)c2cc(Cl)ccc21 [Flurazepam, flurazepam] | 10 mg | – |
| O=C1Nc2ccc(Cl)cc2C(c2ccccc2Cl)=NC1O (stereo not drawn) [Lorazepam, lorazepam] | 1 mg | – |
| Cc1ncc2n1-c1ccc(Cl)cc1C(c1ccccc1F)=NC2 [Midazolam, midazolam] | 3.3 mg | – |
| Fc1ccccc1C1=NCC(=S)N(CC(F)(F)F)c2ccc(Cl)cc21 [Quazepam, quazepam] | 13 mg | – |
| CN1C(=O)C(O)N=C(c2ccccc2)c2cc(Cl)ccc21 (stereo not drawn) [Temazepam, temazepam] | 10 mg | – |
| Cc1nnc2n1-c1ccc(Cl)cc1C(c1ccccc1Cl)=NC2 [Triazolam, triazolam] | 0.25 mg | – |

— patent US20250319095A1, “USE OF BENZO[…] INCREASE SENSITIVITY TO […] A CHRONIC SSRI REGIMEN” (Compass Pathfinder Limited, priority 2020, published 2025)
